Results taken from patent publication US8987217B2, “Modified saponins for the treatment of fungal infections” (The General Hospital Corporation, priority 2010, dated 2015).
In brackets after ≈: the same amount, converted by molar mass.

Key:
[1] = test system: C. albicans strain DAY185; assay: in vitro antifungal activity (MIC) in the co-inoculation assay, turbidity read visually; type: cell-based
Procedure: (§1) The procedure for the co-inoculation antifungal compound screen were conducted as previously described (Okoli et al., PLoS ONE, 4:e7025 (2009); Tampakakis et al., Nat Protocols, 3:1925-1931 (2008)), using the C. albicans strain DAY185 (Davis et al., Infect Immun, 68:5953-5959 (2000)) and the C. elegans glp-4;sek-1 double mutant.
The determination of the lowest concentration of the selected compounds showing in vitro antifungal activity was accomplished by following the steps detailed in the co-inoculation assay, using two-fold serial dilutions of the test compounds.

[2] = test system: C. albicans; assay: C. elegans-C. albicans co-inoculation assay, nematode survival; type: in vivo
Procedure: as §1
(§2) This assay allows simultaneous assessment of a compound's potential toxicity and the ability to promote the survival of the nematode in the presence of C. albicans, including modes of action not traditionally considered in antifungal assays such as impeding a fungal virulence factor or promoting host immune response. We performed a screen of 2,560 natural products representing a fraction of the Analyiticon Discovery compound collection (ac-discovery.com) housed at the Broad Institute of Harvard and MIT (Cambridge, Mass.). […] These natural products identified in the primary screen were retested and confirmed (FIG. 1; Table 1). […] Moreover, although the antifungal effects of some of these saponins have been reported (Sata et al., Biosci Biotechnol Biochem, 62:1904-1911 (1998); Ohtani et al., Phytochem, 33:83-86 (1993)), their efficacy against Candida spp. has not been studied.
After confirmation of these hits, dose response experiments were conducted to determine the concentration that provided maximum nematode survival. The compounds conferred a range of nematode survival from 27% (compound A6) to 93% (compounds A2, A7, A24, and A25), however, with the exception of A6, all compounds conferred a nematode survival over 65% (FIG. 1).

[3] = test system: C. elegans; assay: toxicity to the nematode in dose response experiments; details: dose response experiments, higher concentrations
From the text: as §2
Representatives of the saponins family are able to disrupt cellular membranes and the lytic activity on erythrocytes has been used as an assay for some saponins Francis et al., British Journal of Nutrition, 88:587-605 (2002)). This property is derived from the affinity of some saponins for binding cholesterol forming insoluble pores composed of the sterol and saponins (Bangham et al., Nature, 196:952-953(1962); Glauert et al., Nature, 196:953-955 (1962)). […] The dose-response experiments previously used to determine the EC50 and approximate the MIC can also indicate if the saponins maybe toxic to C. elegans and potentially to mammalian cells.

[4] = test system: C. albicans strains; assay: MIC by standard CLSI microdilution protocol M27-A; type: cell-based
Procedure: Using the standard Clinical and Laboratory Standards Institute (CLSI) procedure, the in vitro MIC of these two compounds was determined on the following C. albicans strains: DAY185 (the standard strain used throughout the screen), two fluconazole-resistant strains of C. albicans, and an echinocandin-resistant strain of C. albicans (Table 2).
(§3) The minimal inhibitory concentration (MIC) was determined for strains DAY185, 98-145, 95-120 (White et al., Antimicrob Agents Chemother, 46:1704-1713 (2002)), and A15-10 (Garcia-Effron et al., Antimicrob Agents Chemother, 53:112-122 (2009)) spectrophotometrically using RPMI 1640 media (Mediatech, Inc.) following the standard CLSI microdilution protocol M27-A (National Committee for Clinical Laboratory Standards, Reference method for broth dilution susceptibility testing of yeasts. Tentative standard M27-A, Villanova, Pa. (1995)). Biofilm assays using identified compounds were conducted as previously described (Richard et al., Eukaryot Cell, 4:1493-1502 (2005)). The biofilm dry mass was determined by drying the silicone squares in a chemical hood, and weighing the resulting biofilm mass subtracting the previously weighed mass of the silicone square. Biofilm pictures were captured using a confocal laser microscope (TCS NT, Leica Microsystems). Cells were grown at 30° C., exposed to PS for 30 min, and then washed with PBS.

[5] = test system: C. albicans biofilm; assay: biofilm formation on silicone pads (dry mass); type: cell-based; details: 20 μg/mL (below the MIC), compared with caspofungin
Procedure: as §3, with “Biofilm pictures were captured using a confocal laser microscope (TCS NT, Leica Microsystems). Cells were grown at 30° C., exposed to PS for 30 min, and then washed with PBS.” left out
Caspofungin (Merck) served as a known antifungal compound control. In vitro hyphal inhibition was assessed by incubation of DAY185 in RPMI 1640 media at 37° C. […] The ability of the antifungal compound A16, at either 2 or 4 μg/mL, to induce osmotic stress was assessed using DAY185 grown in a 96 well microtiter plate containing RPMI 1640 media and NaCl, ranging in concentrations from 0-2 M in 0.25 M increments. The growth of the fungus was measured spectrophotometrically after 48 hours of growth at 35° C.

[6] = test system: sheep erythrocytes; assay: hemolysis of sheep erythrocytes; type: cell-based; details: 100 μg/mL
Procedure: The cytotoxicity for the identified compounds was confirmed as previously described (Breger et al., PLoS Pathog, 3:e18 (2007); Moy et al., Proc Natl Acad Sci USA, 103:10414-10419 (2006)). Hemolysis of sheep erythrocytes (Rockland Immunochemicals) was monitored on a spectrophotometer at A540 with the two natural products A16 and A19 (100 μg/mL) in 2% DMSO. Triton X-100 and DMSO were used as controls.

## C/C=C(/C)C(=O)O[C@H]1CC(C)(C)C[C@H]2C3=CCC4[C@@]5(C)CC[C@H](O[C@@H]6O[C@H](C(=O)O)[C@@H](O[C@@H]7O[C@H](CO)[C@H](O)[C@H](O)[C@H]7O[C@@H]7O[C@H](CO)[C@@H](O)[C@H](O)[C@H]7O)[C@H](O)[C@H]6OC6O[C@@H](C)[C@H](O)[C@@H](O)[C@H]6O)C(C)(C)C5CC[C@@]4(C)[C@]3(C)C[C@@H](O)[C@@]12CO (some centres unmarked) [A19]
[1]; co-inoculation assay, two-fold serial dilutions, C. albicans DAY185
  MIC in vitro: 26.5 µg/mL (≈ 22 µM)
[1]; screen / dose response
  in vitro growth of C. albicans: completely inhibited
[2]; dose response, C. albicans-infected C. elegans
  maximum nematode survival: 80%
[2]; dose that resulted in 50% survival of C. albicans-infected nematodes
  EC50 in vivo: 26.5 µg/mL (≈ 22 µM)
[3]
  toxicity to the nematode: none of the concentrations used in the dose response experiment showed signs of toxicity
[4]; C. albicans DAY185
  MIC: 32 µg/mL (≈ 26.6 µM)
[4]; echinocandin-resistant strain A15
  MIC: 16 µg/mL (≈ 13.3 µM)
[4]; fluconazole-resistant strain 95-120
  MIC: 32 µg/mL (≈ 26.6 µM)
[4]; fluconazole-resistant strain 98-145
  MIC: 32 µg/mL (≈ 26.6 µM)
[5]
  biofilm formation: able to inhibit biofilm formation
[6]
  hemolytic activity: no hemolytic activity
